Data from patent US20250195491A1 (AEVIS BIO, INC., priority 2022, published 2025).

Assays:
[1] = test system: iNOS and COX-2; assay: iNOS and COX-2 immunoblotting in LPS-stimulated RAW264.7 cells; assay type: cell-based, mouse; conditions: RAW264.7, 3.33, 10, or 30 μM, LPS 60 ng/ml 24 hours, FIG. 6A
Method: To confirm an oxidative stress suppression effect, the expression levels of iNOS and COX-2 were confirmed.
To this end, the RAW264.7 cell line, which is a mouse macrophage cell line, was purchased from the Korea Cell Line Bank (KCLB, Korea) and used, and cultured in a DMEM medium (Corning, MD, USA) supplemented with 10% fetal bovine serum (Corning, MD, USA), 100 U/mL of penicillin (Corning, MD, USA), and 100 100 μg/mL of streptomycin (Corning, MD, USA) at 37° C. in a 5% CO2 incubator.
After 1 hour, the cells were stimulated by treatment with 60 ng/ml of LPS, and further cultured for 24 hours. The cells were disrupted by adding a RIPA buffer containing a protease inhibitor cocktail (Thermo Fisher Scientific) and centrifuged at 14,000 rpm for 15 minutes at 4° C. to obtain a cell extract. Equal amounts of the cell extract were loaded, and proteins were separated through SDS-PAGE and then transferred to a PVDF film. The protein-transferred membrane was blocked using skim milk, incubated with a primary antibody for 3 hours at room temperature, and then incubated with an HRP-conjugated secondary antibody for 1 hour at room temperature.
The resulting product was washed with TBS-T three times between steps. […]

[2] = test system: TNF-α, IL-1β, and IL-6; assay: Pro-inflammatory cytokine mRNA (RT-PCR) in LPS-stimulated BV-2 cells; assay type: cell-based, mouse; conditions: BV-2, 30, 10, or 3.33 μM, LPS 1 μg/mL 6 hours, FIG. 5B
Method: BV-2 was plated in a 6-well plate (Corning, MD, USA) at 5×10^5 cells/well, and cultured using a DMEM medium (Corning, MD, USA) containing 10% fetal bovine serum (Corning, MD, USA) and 100 U/mL of penicillin/streptomycin (Corning, MD, USA) at 37° C. in a 5% CO2 incubator for one day for stabilization. […] 1 μg/mL of LPS (Sigma, USA) was added to all experimental groups excluding the non-inflammation-induced group and allowed to react at 37° C. in a 5% CO2 incubator for 6 hours.
The drug-treated BV-2 underwent RNA prep according to kit manual using an RNA prep kit (Monarch Total RNA Miniprep kit, NEB, UK), and the concentration was measured using a nanophotometer (NP80, Implen, Germany). According to the concentration of each RNA sample, 1 μg of RNA was added and cDNA was synthesized according to the manual of the cDNA synthesis kit (LunaScript RT SuperMix kit, NEB, UK).
The expression level of each cytokine in the synthesized cDNA was analyzed and compared using Real-Time PCR (StepOne™Bioscience, USA) equipment. […] The Cr value for the gene of each sample obtained through real-time PCR was normalized by the value of the internal control gene (GAPDH) of each sample, the expression level was estimated inversely by 2ΔΔCT calculation, and the resulting value of each group was quantified and expressed as a percentage relative to the LPS-only treatment group.

Structure (SMILES): Nc1cccc2c1C(=S)N(C1CCC(=O)NC1=O)C2=O (centres unmarked) [3-MP, 3-thiopomalidomide]
- expression of iNOS and COX-2 (protein) [1]: inhibits the expression of iNOS and COX-2
- pro-inflammatory cytokine inhibition effect (mRNA) [2]: higher pro-inflammatory cytokine inhibition effect than pomalidomide
